Results taken from patent publication US10064942B2, “Copper-cysteamine and methods of use” (THE BOARD OF REGENTS, THE UNIVERSITY OF TEXAS SYSTEM, priority 2013, dated 2018).

Legend:
MCF-7 tumors = assay type: in vivo, nude mice
Method: A suspension of 10×10^6MCF-7 cancer cell lines was injected subcutaneously into flanks on both shoulder and leg area of nude mice. Mice were monitored on a daily basis for the growth of tumors (FIG. 24). […] Saline (10 μL, as control, left shoulder) and Cu-Cy with concentration about 0.8 mg/mL (10 μL-right shoulder, 15 μL-left leg and 20 μL-right leg) were injected intra-tumorally. At one minute post-injection, mice were anesthetized with 2% (v/v) isofluorane, and tumors were irradiated with an X-ray dose of 5 Gy. Without X-ray treatment (top row), the tumors grew as time progressed, and there was no apparent size difference among Cu-Cy dosages of 10, 15, and 20 μl. Meanwhile, the tumors with no Cu-Cy (saline only) treatment were larger than the tumors with Cu-Cy treatment. […] The animals were sacrificed via CO2 inhalation and cervical […] on the day 13 of tumor growth. Absent X-ray radiation (top row), the tumors without Cu-Cy treatment grew to a somewhat larger volume than those treated by Cu-Cy, which indicates the minor toxicity from the Cu-Cy particles themselves. […] This is seen by comparing the two tumors treated with saline with and without X-ray radiation. For the treatment with 20 μL of Cu-Cy particles at 5 Gy dose, the tumor size is reduced to about 3 mm in diameter while the untreated tumor size is about 10 mm in diameter.

[1] = tested on: human hepatocellular liver cells (HEPT); test: UV light (350 nm) destruction of liver cells, calcein/EthD-1 fluorescence imaging; assay type: cell-based
Description: FIGS. 11A-11D depict the comparison of UV light (350 nm) destruction on human hepatocellular liver cells (HEPT) without (top row, FIG. 11A and FIG. 11B) and with (bottom row, FIG. 11C and FIG. 11D) Cu-Cy crystals. […] The scale bar is always 100 μm.
FIGS. 11A-11D depict the effectiveness of the Cu-Cy material as causing cell death when irradiated with UV light or X-ray. For example, in FIGS. 11A-11D, the fluorescence images of human hepatocellular liver cells were taken before and after the UV light exposure (350 nm, for 2 minutes, from an OLYMPUS IX71 microscope). Calcein and Ethidium homodimer 1 (EthD-1) were used as the stains showing cell alive (green) and death (red) respectively.
Each of the images was taken right after the staining without further liver cell incubation.

[2] = tested on: human breast cancer (MCF-7) cells; test: UV light (350 nm) destruction of MCF-7 cells, fluorescence imaging; assay type: cell-based; details: MCF-7 cells exposed to Cu-Cy and irradiated with UV light (350 nm)
Description: FIGS. 12A-12D depict the comparison of UV light (350 nm) destruction on human breast cancer (MCF-7) cells without (top row, FIG. 12A and FIG. 12B) and with (bottom row, FIG. 12C and FIG. 12D) Cu-Cy crystals. […] The scale bar is always 100 μm.
Photo-induced toxicity was then applied to cancer cells.

MCF-7 cells = test: MTT cytotoxicity of Cu-Cy crystals in MCF-7 cells; assay type: cell-based, human; details: 24 h incubation
Method: The toxicity of Cu-Cy crystals in MCF-7 cells was evaluated using an MTT (3-(4,5-dimethylthiazol-2-yl)-2,5-diphenyltetrazoliumbromide) assay. 2 mg of the Cu-Cy crystals were well ground and sonicated before being dissolved in 1 mL of DI water (control) for the measurement.
Cytotoxicity was evaluated using the MTT assay. Approximately 2,000 cells/well MCF-7 cells were seeded into 96-well plates and allowed to grow for 48 hours in an incubator (Sanyo, Japan, 5% CO2, 37° C., humidified atmosphere). On the day of the experiment, after removing the culture medium, different volumes of media containing Cu-Cy particles were added to their respective wells and cytotoxicity was evaluated after 24 h of cell incubation

Stability in solution = assay type: physicochemical; details: aqueous solution and other common solvents
[3] = tested on: human prostate cancer (PC3) cells; test: X-ray (2 Gy) destruction of PC3 cells, fluorescence imaging; assay type: cell-based; details: Cu-Cy crystals plus X-ray 2 Gy
Description: FIGS. 14A-14D depict the comparison of X-ray (2 Gy) destruction on human prostate cancer (PC3) cells without (top row, FIG. 14A and FIG. 14B) and with (bottom row, FIG. 14C and FIG. 14D) Cu-Cy crystals. […] The scale bar is always 100 μm.
As such, the combination of the disclosed Cu-Cy material and a source of radiation provides an effective method for inducing cell death.

[4] = tested on: human breast cancer (MCF-7) cells; test: X-ray destruction of MCF-7 cells, calcein/EthD-1 fluorescence imaging; assay type: cell-based
Description: FIGS. 13A-13D depict the comparison of X-ray (2 Gy) destruction on human breast cancer (MCF-7) cells without (top row, FIG. 14A and FIG. 14B) and with (bottom row, FIG. 14C and FIG. 14D) Cu-Cy crystals. […] The scale bar is always 100 μm.
As stated herein above, the disclosed Cu-Cy compound also absorbs X-rays and emits a luminescent spectrum. FIG. 13A-13D depicts the MCF-7 cell viabilities by fluorescence images with and without Cu-Cy crystals and with and without X-ray irradiation. As with UV radiation, X-ray irradiation of cells incubated with the disclosed Cu-Cy complex is also an effective method for causing cell death.
FIGS. 14A-D depict fluorescence images of MCF-7 cells before and after 1 Gy X-ray exposure by an OLYMPUS IX71 microscope. Calcein and ethidiumhomodimer 1 (EthD-1) were used as the stains showing cells alive (green) and dead (red) respectively. Each of the images was taken immediately after staining, without further cell incubation.
MCF-7 cells were seeded into two 6-well plates (A and B) at 5,000 cells/well and incubated for 48 h at 37° C. in a humidified atmosphere of 5% v/v CO2 at dark. On the day of the experiment, the culture medium was removed and 5 mL medium containing 0 and 40 μg/ml Cu-Cy particles were added to different wells. […] The cells were viewed under an OLYMPUS IX71 fluorescence microscope.

## Cu3Cl(SR)2 wherein R is —CH2CH2NH2 [Cu-Cy]
MCF-7 tumors; 20 μL Cu-Cy (about 0.8 mg/mL) intra-tumoral, X-ray 5 Gy, day 13
  tumor size (diameter): about 3 mm
MCF-7 tumors; mouse, in vivo
  toxicity of Cu-Cy particles themselves in vivo: slight toxicity in vivo
MCF-7 tumors; with X-ray radiation 5 Gy, 15 and 20 μL Cu-Cy dosages
  tumor growth: greatly reduced
MCF-7 tumors; without X-ray, Cu-Cy 10, 15, 20 μL
  tumor size or growth: does not significantly reduce tumor size or growth
[1]; Cu-Cy crystals alone, no UV irradiation
  cell death: does not result in significant cell death
[1]; Cu-Cy crystals plus UV light 350 nm for 2 minutes
  cell death: significant cell death
[2]
  cellular death: significant cellular death
MCF-7 cells; Cu-Cy 0.1 μg/ml
  cellular viability: about 95%
MCF-7 cells; Cu-Cy 200 μg/ml
  cellular viability: about 70%
Stability in solution
  stability: stable in aqueous solution
[3]
  cell death: Significant cell death
[4]; Cu-Cy coupled with X-ray treatment (1 Gy; 2 Gy elsewhere in the source)
  cell destruction: significant cell destruction
[4]; Cu-Cy particles alone, no X-ray
  cell death: little cell death
